Experimental data as given in paper PMC7531004, “Discovery of gramicidin A analogues with altered activities by multidimensional screening of a one-bead-one-compound library” (Nature Communications, 2020).
Where a SMILES comes first, the peptide text is derived from it. [ ]: non-standard residue; d: D form. The star is where a group is joined. NHCH2CH2OH = OCCN*; For = O=C*

Key:
[1] = test system: Streptococcus pyogenes SSI-9; assay: Antibacterial activity assay of bead-derived peptides (three concentrations); format: cell-based; set-up: key: +++: inhibition by the 640-fold diluted peptide solution; ++: inhibition by the 160-fold diluted solution; +: inhibition by the 40-fold diluted solution; -: no inhibition; conditions: S. pyogenes, bead-derived peptide solution, three concentrations
Summary of the method: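 First, each peptide stock was diluted 4- and 16-fold in DMSO; next, the three solutions were mixed with S. pyogenes SSI-9 suspension (2 × 10^5 CFU) in cation-adjusted Mueller Hinton Broth plus 5% laked horse blood; finally, plates stood 18 h at 37 °C before checking for grown-cell precipitation.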

[2] = H+/Na+ transport assay of bead-derived peptides (one-point); format: biochemical; set-up: key: relative activity; mean of two control wells = 1.00; conditions: bead-derived peptide solution, EYPC/EYPG LUVs;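 also: relative to parent gramicidin A activity set to 1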
Summary of the method: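 One-point screen: peptide + pyranine-loaded LUVs, 30 min RT with vortexing, 96-well. Read-out is fluorescence intensity scaled as 100 × (Ix – I0)/(Imax – I0). Imax from Triton X-100, I0 from untreated vesicles, and the mean of the two control wells is set to 1.00.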

[3] = test system: P388 mouse leukemia cells; conditions: 92 h
Summary of the method: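 Peptide stocks diluted 250× in growth medium; P388 cells 1 × 10^4 cells/mL final; 37 °C, 5% CO2, 92 h. WST-1 + 1-methoxy PMS, 4 h, A415. Output: % viability.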

SMILES	antibacterial activity [1]	H+/Na+ transport activity normalized against the value of 1 (1.00) [2]	cell viability/% [3] [%]
CNC(=O)C[C@@H](NC(=O)[C@H](Cc1c[nH]c2ccccc12)NC(=O)[C@@H](CC(C)C)NC(=O)[C@H](Cc1c[nH]c2ccccc12)NC(=O)[C@H](NC(=O)[C@H](Cc1c[nH]c2ccccc12)NC(=O)[C@H](NC(=O)[C@@H](NC(=O)[C@@H](CC(C)C)NC(=O)[C@H](C)NC(=O)[C@@H](CC(C)C)NC(=O)[C@H](C)NC(=O)CNC(=O)[C@@H](NC=O)C(C)C)C(C)C)C(C)C)C(C)C)C(=O)N[C@@H](Cc1c[nH]c2ccccc12)C(=O)NCCO [compound 9609] (For-VGA[dL]A[dL]V[dV]W[dV]W[dL]W[dD](NHMe)W-NHCH2CH2OH)	-	1.15	100.0
CC(C)C[C@@H](NC(=O)[C@H](C)NC(=O)CNC(=O)[C@@H](NC=O)C(C)C)C(=O)N[C@@H](C)C(=O)N[C@@H](C(=O)N[C@H](C(=O)N[C@@H](C(=O)N[C@@H](Cc1c[nH]c2ccccc12)C(=O)N[C@@H](C(=O)N[C@@H](Cc1c[nH]c2ccccc12)C(=O)N[C@H](CC(C)C)C(=O)N[C@@H](Cc1c[nH]c2ccccc12)C(=O)N[C@@H](C(=O)N[C@@H](Cc1c[nH]c2ccccc12)C(=O)NCCO)C(C)C)C(C)C)C(C)C)C(C)C)[C@H](C)O [compound 10415] (For-VGA[dL]A[dT]V[dV]W[dV]W[dL]W[dV]W-NHCH2CH2OH)	-	1.02	100.0
CC(C)C[C@@H](NC(=O)[C@H](Cc1c[nH]c2ccccc12)NC(=O)[C@H](NC(=O)[C@H](Cc1c[nH]c2ccccc12)NC(=O)[C@H](NC(=O)[C@H](Cc1c[nH]c2ccccc12)NC(=O)[C@H](NC(=O)[C@@H](NC(=O)[C@H](NC(=O)[C@H](C)NC(=O)[C@H](NC(=O)[C@H](C)NC(=O)CNC(=O)[C@@H](NC=O)C(C)C)C(C)C)C(C)C)C(C)C)C(C)C)C(C)C)C(C)C)C(=O)N[C@@H](Cc1c[nH]c2ccccc12)C(=O)NCCO [compound 1004] (For-VGA[dV]A[dV]V[dV]W[dV]W[dV]W[dL]W-NHCH2CH2OH)	+	1.04	60.4
CC(C)[C@H](NC=O)C(=O)NCC(=O)N[C@@H](C)C(=O)N[C@@H](C(=O)N[C@@H](C)C(=O)N[C@@H](C(=O)N[C@H](C(=O)N[C@@H](C(=O)N[C@@H](Cc1c[nH]c2ccccc12)C(=O)N[C@@H](C(=O)N[C@@H](Cc1c[nH]c2ccccc12)C(=O)N[C@@H](C(=O)N[C@@H](Cc1c[nH]c2ccccc12)C(=O)N[C@@H](C(=O)N[C@@H](Cc1c[nH]c2ccccc12)C(=O)NCCO)C(C)C)C(C)C)C(C)C)C(C)C)C(C)C)C(C)C)[C@H](C)O [compound 8545] (For-VGA[dT]A[dV]V[dV]W[dV]W[dV]W[dV]W-NHCH2CH2OH)	-	1.01	83.1
CNC(=O)C[C@@H](NC(=O)[C@H](Cc1c[nH]c2ccccc12)NC(=O)[C@H](NC(=O)[C@H](Cc1c[nH]c2ccccc12)NC(=O)[C@@H](CC(C)C)NC(=O)[C@H](Cc1c[nH]c2ccccc12)NC(=O)[C@H](NC(=O)[C@@H](NC(=O)[C@H](NC(=O)[C@H](C)NC(=O)[C@@H](CC(C)C)NC(=O)[C@H](C)NC(=O)CNC(=O)[C@@H](NC=O)C(C)C)C(C)C)C(C)C)C(C)C)C(C)C)C(=O)N[C@@H](Cc1c[nH]c2ccccc12)C(=O)NCCO [compound 7948] (For-VGA[dL]A[dV]V[dV]W[dL]W[dV]W[dD](NHMe)W-NHCH2CH2OH)	-	1.04	100.0
CC(C)C[C@@H](NC(=O)[C@H](Cc1c[nH]c2ccccc12)NC(=O)[C@H](NC(=O)[C@H](Cc1c[nH]c2ccccc12)NC(=O)[C@H](NC(=O)[C@@H](NC(=O)[C@H](NC(=O)[C@H](C)NC(=O)[C@H](NC(=O)[C@H](C)NC(=O)CNC(=O)[C@@H](NC=O)C(C)C)C(C)C)C(C)C)C(C)C)C(C)C)C(C)C)C(=O)N[C@@H](Cc1c[nH]c2ccccc12)C(=O)N[C@@H](C(=O)N[C@@H](Cc1c[nH]c2ccccc12)C(=O)NCCO)C(C)C [compound 676] (For-VGA[dV]A[dV]V[dV]W[dV]W[dL]W[dV]W-NHCH2CH2OH)	++	1.02	100.0
CC(C)C[C@@H](NC(=O)[C@H](C)NC(=O)CNC(=O)[C@@H](NC=O)C(C)C)C(=O)N[C@@H](C)C(=O)N[C@@H](C(=O)N[C@H](C(=O)N[C@H](CC(C)C)C(=O)N[C@@H](Cc1c[nH]c2ccccc12)C(=O)N[C@H](CC(C)C)C(=O)N[C@@H](Cc1c[nH]c2ccccc12)C(=O)N[C@@H](C(=O)N[C@@H](Cc1c[nH]c2ccccc12)C(=O)N[C@H](CC(C)C)C(=O)N[C@@H](Cc1c[nH]c2ccccc12)C(=O)NCCO)[C@H](C)O)C(C)C)C(C)C [compound 4128] (For-VGA[dL]A[dV]V[dL]W[dL]W[dT]W[dL]W-NHCH2CH2OH)	+	1.03	100.0
CC(C)C[C@@H](NC(=O)[C@H](C)NC(=O)[C@H](NC(=O)[C@H](C)NC(=O)CNC(=O)[C@@H](NC=O)C(C)C)C(C)C)C(=O)N[C@H](C(=O)N[C@@H](C(=O)N[C@@H](Cc1c[nH]c2ccccc12)C(=O)N[C@@H](C(=O)N[C@@H](Cc1c[nH]c2ccccc12)C(=O)N[C@H](CC(C)C)C(=O)N[C@@H](Cc1c[nH]c2ccccc12)C(=O)N[C@@H](C(=O)N[C@@H](Cc1c[nH]c2ccccc12)C(=O)NCCO)C(C)C)C(C)C)[C@H](C)O)C(C)C [compound 9633] (For-VGA[dV]A[dL]V[dT]W[dV]W[dL]W[dV]W-NHCH2CH2OH)	-	1.06	100.0
CNC(=O)C[C@@H](NC(=O)[C@H](Cc1c[nH]c2ccccc12)NC(=O)[C@@H](CC(C)C)NC(=O)[C@H](Cc1c[nH]c2ccccc12)NC(=O)[C@H](NC(=O)[C@H](Cc1c[nH]c2ccccc12)NC(=O)[C@@H](CC(C)C)NC(=O)[C@@H](NC(=O)[C@H](NC(=O)[C@H](C)NC(=O)[C@H](NC(=O)[C@H](C)NC(=O)CNC(=O)[C@@H](NC=O)C(C)C)C(C)C)C(C)C)C(C)C)C(C)C)C(=O)N[C@@H](Cc1c[nH]c2ccccc12)C(=O)NCCO [compound 11368] (For-VGA[dV]A[dV]V[dL]W[dV]W[dL]W[dD](NHMe)W-NHCH2CH2OH)	-	1.01	61.1
CNC(=O)C[C@@H](NC(=O)[C@H](Cc1c[nH]c2ccccc12)NC(=O)[C@H](NC(=O)[C@H](Cc1c[nH]c2ccccc12)NC(=O)[C@H](NC(=O)[C@H](Cc1c[nH]c2ccccc12)NC(=O)[C@@H](CC(C)C)NC(=O)[C@@H](NC(=O)[C@H](NC(=O)[C@H](C)NC(=O)[C@H](NC(=O)[C@H](C)NC(=O)CNC(=O)[C@@H](NC=O)C(C)C)C(C)C)C(C)C)C(C)C)C(C)C)C(C)C)C(=O)N[C@@H](Cc1c[nH]c2ccccc12)C(=O)NCCO [compound 12691] (For-VGA[dV]A[dV]V[dL]W[dV]W[dV]W[dD](NHMe)W-NHCH2CH2OH)	-	1.11	100.0
CC(C)C[C@@H](NC(=O)[C@H](C)NC(=O)[C@H](NC(=O)[C@H](C)NC(=O)CNC(=O)[C@@H](NC=O)C(C)C)C(C)C)C(=O)N[C@H](C(=O)N[C@@H](C(=O)N[C@@H](Cc1c[nH]c2ccccc12)C(=O)N[C@H](CC(C)C)C(=O)N[C@@H](Cc1c[nH]c2ccccc12)C(=O)N[C@@H](C(=O)N[C@@H](Cc1c[nH]c2ccccc12)C(=O)N[C@@H](C(=O)N[C@@H](Cc1c[nH]c2ccccc12)C(=O)NCCO)C(C)C)C(C)C)[C@H](C)O)C(C)C [compound 9487] (For-VGA[dV]A[dL]V[dT]W[dL]W[dV]W[dV]W-NHCH2CH2OH)	-	1.15	100.0
CNC(=O)C[C@@H](NC(=O)[C@H](Cc1c[nH]c2ccccc12)NC(=O)[C@@H](CC(C)C)NC(=O)[C@H](Cc1c[nH]c2ccccc12)NC(=O)[C@H](NC(=O)[C@H](Cc1c[nH]c2ccccc12)NC(=O)[C@H](NC(=O)[C@@H](NC(=O)[C@@H](CC(C)C)NC(=O)[C@H](C)NC(=O)[C@@H](CC(C)C)NC(=O)[C@H](C)NC(=O)CNC(=O)[C@@H](NC=O)C(C)C)C(C)C)C(C)C)C(C)C)C(=O)N[C@@H](Cc1c[nH]c2ccccc12)C(=O)NCCO [compound 10678] (For-VGA[dL]A[dL]V[dV]W[dV]W[dL]W[dD](NHMe)W-NHCH2CH2OH)	-	1.10	76.0
CC(C)C[C@@H](NC(=O)[C@H](C)NC(=O)[C@H](NC(=O)[C@H](C)NC(=O)CNC(=O)[C@@H](NC=O)C(C)C)C(C)C)C(=O)N[C@H](C(=O)N[C@@H](C(=O)N[C@@H](Cc1c[nH]c2ccccc12)C(=O)N[C@@H](C(=O)N[C@@H](Cc1c[nH]c2ccccc12)C(=O)N[C@@H](C(=O)N[C@@H](Cc1c[nH]c2ccccc12)C(=O)N[C@H](CC(C)C)C(=O)N[C@@H](Cc1c[nH]c2ccccc12)C(=O)NCCO)C(C)C)C(C)C)[C@H](C)O)C(C)C [compound 9738] (For-VGA[dV]A[dL]V[dT]W[dV]W[dV]W[dL]W-NHCH2CH2OH)	-	1.21	100.0
